Consider nine compounds from PMC3523327 (Bioorganic & medicinal chemistry letters, 2012).

The IC50 is the concentration that inhibits the measured activity by half. A higher IC50 goes with lower potency.

The subject of one assay is HIV-1 vector with N155H IN mutant.
Assay: not given
The settings on record: cellular studies, HIV vectors bearing N155H mutant; ref [25]; cited from earlier work.
With `Cc1nnc(C(=O)NC(C)(C)c2nc(C(=O)NCc3ccc(F)cc3)c(O)c(=O)n2C)o1` [raltegravir], the “loss of antiviral potency” value is listed as around 40 fold.

The next assay concerns the target HIV-1 integrase (IN), strand transfer (Human immunodeficiency virus type 1 group M subtype B, UniProt P12497). Nature of the assay: in vitro IN assay, strand transfer reaction. The class given is biochemical. Particulars: ST IC50 of 5d-2 versus 4d.
`CC(C)c1c(O)c(O)c2c(c1S(=O)(=O)N(C)C)CN(Cc1ccc(F)c(Cl)c1)C2=O` [Compound 5d-2]: the “enhancement in the ST reaction relative to parent 4d” value worked out at 20 fold.

A further assay concerns the target HIV-1 integrase (IN), 3′-processing (Human immunodeficiency virus type 1 group M subtype B, UniProt P12497). The assay is described as follows: in vitro IN assay, 3′-processing reaction. In kind it is biochemical.
Details: not given
On to `Cc1cc2c(c(O)c1O)C(=O)N(Cc1ccc(F)c(Cl)c1)C2` [Compound 4b], for which the 50% inhibitory concentration (IC50) is above 111 µM.
The same measure, in the same setting: then `CCCCc1cc2c(c(O)c1O)C(=O)N(Cc1ccc(F)c(Cl)c1)C2` [Compound 4c], with above 111 µM; and `CC(C)c1cc2c(c(O)c1O)C(=O)N(Cc1ccc(F)c(Cl)c1)C2` [Compound 4d], with above 111 µM.
Still for that read-out and setting: then `O=C1c2c(cc(-c3ccccc3)c(O)c2O)CN1Cc1ccc(F)c(Cl)c1` [Compound 4e], with above 111 µM; and `CN(C)S(=O)(=O)c1ccc(-c2cc3c(c(O)c2O)C(=O)N(Cc2ccc(F)c(Cl)c2)C3)cc1` [Compound 4h], with above 111 µM.
On the same count and under the same terms, in the case of `CCCCc1c(O)c(O)c2c(c1S(=O)(=O)N(C)C)CN(Cc1ccc(F)c(Cl)c1)C2=O` [Compound 5c-2] it was above 111 µM.
As to `CC(C)c1c(O)c(O)c2c(c1S(=O)(=O)N(C)C)CN(Cc1ccc(F)c(Cl)c1)C2=O` [Compound 5d-2], the IC50 is above 111 µM.
The same measure, in the same setting: then `CC(C)c1c(O)c(O)c2c(c1S(=O)(=O)N1CCOCC1)CN(Cc1ccc(F)c(Cl)c1)C2=O` [Compound 5d-10], with above 111 µM.
